Laboratory results: PubChem BioAssay (NCI)
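These data come from cells grown in 96-well plates and exposed to compound for 48 hours at five concentrations. Here, GI50 denotes the concentration required for 50% inhibition of growth. TGI marks complete inhibition of growth.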

Each compound was assayed on OVCAR-3 ovarian (assay: DTP human tumour cell line panel, 48 h).

| SMILES | TGI [µM] | GI50 [µM] |
| --- | --- | --- |
| Cc1ccc(N=NC(C(=O)c2ccccc2)C(=O)c2ccccc2)cc1 | > 100 | – |
| Cc1ccc(NC(=O)C2C(=O)N(c3ccc(C)c(C)c3)C(=O)/C2=N/O)cc1C (stereo not drawn) | > 100 | – |
| Nc1c(-c2ccc(Br)cc2)[n+]([O-])c2ccccc2[n+]1[O-] | > 100 | – |
| C#CC[C@]12CC(=O)CC[C@H]1CC(=O)C2 | > 100 | – |
| CNC=O.[O]=[Ge].[O]=[Ge].[O]=[Ge].[O]=[Ge][OH].[O]=[Ge][OH] | > 100 | – |
| N#CCCN(c1ccc(/C=C2\N=C(c3ccc(Cl)cc3)OC2=O)cc1)S(=O)(=O)c1ccccc1 | > 100 | – |
| Cc1cc(NS(=O)(=O)c2ccc(NC(=O)c3cccc4c(=O)c5ccccc5[nH]c34)cc2)no1 | 95.5 | – |
| O=C(/C=C/c1ccccc1Cl)c1ccccc1Cl | 33.9 | – |
| COC(=O)C1=C(c2ccc3c(c2)OCO3)O[C@H](c2ccc3c(c2)OCO3)[C@H]1COC(C)=O | > 100 | – |
| CC(C)=[CH][Sb]([Br])([CH]=C(C)C)([CH]=C(C)C)[CH]=C(C)C | 59.8 | 2.44 |
| CCOC(=O)[C@H]1Nc2ccc(C)cc2C2c3ccccc3CC21 (stereo partly drawn) | > 100 | – |
| N#CCCN(CCC#N)c1ccc(/C=C2\N=C(CN3C(=O)c4ccccc4C3=O)OC2=O)cc1 | > 100 | – |
| CSc1nc(NC2OC(COC(C)=O)C(OC(C)=O)C(OC(C)=O)C2OC(C)=O)c2c(OC(C)=O)c(C)c(=O)oc2n1 (stereo not drawn) | > 100 | – |
| O=C(NC1CCCCCC1)C1C(=O)N(C2CCCCCC2)C(=O)/C1=N\O (stereo not drawn) | 37.6 | – |
| COc1ccc(C(=O)O)c(Cc2cccc3ccccc23)c1 | > 100 | – |
| CC#CC(=O)Nc1ccccc1CC(c1c[nH]c2ccccc12)c1c[nH]c2ccccc12 | 49.6 | – |
| NCCCNCCSSCCCCS(=O)O | 44.8 | – |
| COC(=O)C(=O)C(C(=O)C=C(C)C)C(=O)C(=O)Nc1ccc(Cl)cc1C (stereo not drawn) | > 100 | – |
| Cc1cccc(C(C)(C)C)c1NC(=O)CCc1n[nH]c(=S)o1 | > 100 | – |
| Cc1ccc(C(=O)/C=C/c2ccccc2O)c(C)c1 | > 100 | – |
| O=S(O)CCCCSSCCCCSSCCCCS(=O)O | > 100 | – |
| N#Cc1cnsc1 | > 100 | – |
| CC(=O)SCCC1c2[nH]c3ccccc3c2CCN1O (stereo not drawn) | > 100 | – |
| CCOC(=O)NC(=O)c1cn(CCCOC(=O)NCCCCCCNC(=O)OCCCn2c(=O)c(C(=O)NC(=O)OCC)cn(C)c2=O)c(=O)n(C)c1=O | > 100 | – |
| O=C1C2=C(CC3C(C2)C3(Br)Br)C(=O)C2=C1CC1C(C2)C1(Br)Br (stereo not drawn) | > 100 | – |
| CC(C)=CC(=O)N1CCN(C(=O)C=C(C)C)CC1 | > 100 | – |
| CC(=O)c1ccc(NC(=O)/C(Cc2ccccn2)=N/NC(=O)C[N+](C)(C)C)cc1 | > 100 | – |
| CCc1cccc(C)c1NC(C)=O | > 100 | – |
| O=C(CC(=O)N1N=C(c2ccccc2)C(N=Nc2ccc(Cl)cc2)C1=O)Nc1ccccc1Cl (stereo not drawn) | 71.4 | – |

The compounds below were run on NCI-H460 lung (assay: DTP human tumour cell line panel, 48 h).

| SMILES | TGI [µM] | GI50 [µM] |
| --- | --- | --- |
| CCCCCCCCCCCCCCCCOP(=O)(O)Oc1ccc(/C=C\c2ccc(OP(=O)(O)OCCCCCCCCCCCCCCCC)cc2)cc1 | > 100 | – |
| CCN(CC)C(=O)C/C(C)=N/NC(=O)c1ccncc1 | > 100 | – |
| COC(=O)C(=O)C(C(=O)C(=O)Nc1ccc(C)cc1C)c1nc2ccccc2[nH]c1=O (stereo not drawn) | > 100 | – |
| Cc1ccc(NC(=O)C2C(=O)N(c3ccc(C)c(C)c3)C(=O)/C2=N/O)cc1C (stereo not drawn) | > 100 | – |
| Nc1c(-c2ccc(Br)cc2)[n+]([O-])c2ccccc2[n+]1[O-] | > 100 | – |
| C#CC[C@]12CC(=O)CC[C@H]1CC(=O)C2 | > 100 | – |
| CNC=O.[O]=[Ge].[O]=[Ge].[O]=[Ge].[O]=[Ge][OH].[O]=[Ge][OH] | > 100 | – |
| N#CCCN(c1ccc(/C=C2\N=C(c3ccc(Cl)cc3)OC2=O)cc1)S(=O)(=O)c1ccccc1 | > 100 | – |
| Cc1cc(NS(=O)(=O)c2ccc(NC(=O)c3cccc4c(=O)c5ccccc5[nH]c34)cc2)no1 | > 100 | – |
| O=C(/C=C/c1ccccc1Cl)c1ccccc1Cl | 36 | – |
| COC(=O)C1=C(c2ccc3c(c2)OCO3)O[C@H](c2ccc3c(c2)OCO3)[C@H]1COC(C)=O | > 100 | – |
| CC(C)=[CH][Sb]([Br])([CH]=C(C)C)([CH]=C(C)C)[CH]=C(C)C | 54.4 | 16.4 |
| CCOC(=O)[C@H]1Nc2ccc(C)cc2C2c3ccccc3CC21 (stereo partly drawn) | > 100 | – |
| N#CCCN(CCC#N)c1ccc(/C=C2\N=C(CN3C(=O)c4ccccc4C3=O)OC2=O)cc1 | > 100 | – |
| CSc1nc(NC2OC(COC(C)=O)C(OC(C)=O)C(OC(C)=O)C2OC(C)=O)c2c(OC(C)=O)c(C)c(=O)oc2n1 (stereo not drawn) | > 100 | – |
| O=C(NC1CCCCCC1)C1C(=O)N(C2CCCCCC2)C(=O)/C1=N\O (stereo not drawn) | > 100 | – |

| SMILES | TGI [µM] | GI50 [µM] |
| --- | --- | --- |
| COc1ccc(C(=O)O)c(Cc2cccc3ccccc23)c1 | > 100 | – |
| NCCCNCCSSCCCCS(=O)O | > 100 | – |
| COC(=O)C(=O)C(C(=O)C=C(C)C)C(=O)C(=O)Nc1ccc(Cl)cc1C (stereo not drawn) | > 100 | – |
| Cc1cccc(C(C)(C)C)c1NC(=O)CCc1n[nH]c(=S)o1 | > 100 | – |
| Cc1ccc(C(=O)/C=C/c2ccccc2O)c(C)c1 | > 100 | – |
| O=S(O)CCCCSSCCCCSSCCCCS(=O)O | > 100 | – |
| N#Cc1cnsc1 | > 100 | – |
| CC(=O)SCCC1c2[nH]c3ccccc3c2CCN1O (stereo not drawn) | > 100 | – |
| CCOC(=O)NC(=O)c1cn(CCCOC(=O)NCCCCCCNC(=O)OCCCn2c(=O)c(C(=O)NC(=O)OCC)cn(C)c2=O)c(=O)n(C)c1=O | > 100 | – |
| O=C1C2=C(CC3C(C2)C3(Br)Br)C(=O)C2=C1CC1C(C2)C1(Br)Br (stereo not drawn) | > 100 | – |
| CC(C)=CC(=O)N1CCN(C(=O)C=C(C)C)CC1 | > 100 | – |
| COc1ccc(C2CC(=O)c3c(O)c(OC)c(OC)c(OC)c3O2)c(O)c1 (stereo not drawn) | 10.9 | 0.0637 |
| CC(=O)c1ccc(NC(=O)/C(Cc2ccccn2)=N/NC(=O)C[N+](C)(C)C)cc1 | > 100 | – |
| CCc1cccc(C)c1NC(C)=O | > 100 | – |
| O=C(CC(=O)N1N=C(c2ccccc2)C(N=Nc2ccc(Cl)cc2)C1=O)Nc1ccccc1Cl (stereo not drawn) | > 100 | – |

The compounds below were run on NCI-H226 lung (assay: DTP human tumour cell line panel, 48 h).

| SMILES | TGI [µM] |
| --- | --- |
| CCCCCCCCCCCCCCCCOP(=O)(O)Oc1ccc(/C=C\c2ccc(OP(=O)(O)OCCCCCCCCCCCCCCCC)cc2)cc1 | > 100 |
| CCN(CC)C(=O)C/C(C)=N/NC(=O)c1ccncc1 | > 100 |
| CN(C)C(=S)/N=c1\ss/c(=N\C(=S)N(C)C)n1-c1ccc2c(c1)OCO2 | > 100 |
| COC(=O)C(=O)C(C(=O)C(=O)Nc1ccc(C)cc1C)c1nc2ccccc2[nH]c1=O (stereo not drawn) | > 100 |
| Cc1ccc(N=NC(C(=O)c2ccccc2)C(=O)c2ccccc2)cc1 | 40.6 |
| Cc1ccc(NC(=O)C2C(=O)N(c3ccc(C)c(C)c3)C(=O)/C2=N/O)cc1C (stereo not drawn) | > 100 |
| Nc1c(-c2ccc(Br)cc2)[n+]([O-])c2ccccc2[n+]1[O-] | > 100 |
| C#CC[C@]12CC(=O)CC[C@H]1CC(=O)C2 | > 100 |
| CNC=O.[O]=[Ge].[O]=[Ge].[O]=[Ge].[O]=[Ge][OH].[O]=[Ge][OH] | > 100 |
| N#CCCN(c1ccc(/C=C2\N=C(c3ccc(Cl)cc3)OC2=O)cc1)S(=O)(=O)c1ccccc1 | > 100 |
